Test system: MOLM-13 cells
Assay: MOLM-13 Cell Proliferation Assay (indicator of DHODH inhibition)
Type: cell-based
Settings: Homo sapiens, 72 Hours of culture, CellTiter-Glo, no uridine
Protocol: The following assay was conducted to measure proliferation of MOLM-13 cells in the presence of each compound studied. This assay was included as an indicator of DHODH inhibition, as growth of MOLM-13 cells is known to depend on synthesis of pyrimidines using the de novo pathway, which can be blocked by inhibition of DHODH. • 1. MOLM-13 cells were cultured in RPMI 1640 medium+10% Fetal Bovine Serum (FBS). Only low passage cells (<20) were used for the compound tests • 2. On day 1, Log-phase growing Molm-13 Cells were counted and diluted to 10^5 cells/mL in RPMI 1640 medium+10% FBS • 3. 100 μL of diluted MOLM-13 cells in 96 well white plates were seeded, for a final density of 10^4 cells/well. • 4. 0.5 μL of pre-diluted 200× compounds or DMSO control was added to each well. The final DMSO concentration was 0.5%. • 5. After 72 Hours of culture at 37° C., 5% CO2, the plates were taken out and cooled to RT, then 50 μL CellTiter-Glo® (Promega) was added, and the composition was mixed at RT for 10 minutes. • 6. The plates were then read by ViewLux (Speed-fast, Gain-High, Bining-1X, 5 seconds).

SMILES	IC50 [nM]
N#Cc1ccc(C2c3[nH]c4cc(F)c(Cl)cc4c3CCN2c2nccc(Br)n2)cc1 (stereo not drawn) [Compound 69, 4-[2-(4-bromopyrimidin-2-yl)-6-chloro-7-fluoro-2,3,4,9-tetrahydro-1H-pyrido[3,4-b]indol-1-yl]benzonitrile]	10.6
Cc1nc(N2CCc3c([nH]c4ccc(Cl)c(F)c34)C2c2ccc(Cl)cc2)ncc1F (stereo not drawn) [Compound 70, 6-chloro-1-(4-chlorophenyl)-5-fluoro-2-(5-fluoro-4-methylpyrimidin-2-yl)-2,3,4,9-tetrahydro-1H-pyrido[3,4-b]indole]	6.7
C=Cc1ccc(C2c3[nH]c4ccc(Cl)cc4c3CCN2c2ncc(F)cn2)cc1 (stereo not drawn) [Compound 71, 6-chloro-1-(4-ethenylphenyl)-2-(5-fluoropyrimidin-2-yl)-2,3,4,9-tetrahydro-1H-pyrido[3,4-b]indole]	19.3
Fc1c(Cl)ccc2[nH]c3c(c12)CCN(c1nccc(C(F)(F)F)n1)C3c1ccc(Cl)cc1 (stereo not drawn) [Compound 73, 6-chloro-1-(4-chlorophenyl)-5-fluoro-2-[4-(trifluoromethyl)pyrimidin-2-yl]-2,3,4,9-tetrahydro-1H-pyrido[3,4-b]indole]	4.1
Fc1c(Cl)ccc2[nH]c3c(c12)CCN(c1nccc(C(F)(F)F)n1)C3c1ccc(C(F)(F)F)cc1 (stereo not drawn) [Compound 74, 6-chloro-5-fluoro-1-[4-(trifluoromethyl)phenyl]-2-[4-(trifluoromethyl)pyrimidin-2-yl]-2,3,4,9-tetrahydro-1H-pyrido[3,4-b]indole]	5.7
Fc1cc2[nH]c3c(c2cc1Cl)CCN(c1nccc(C(F)(F)F)n1)C3c1ccc(C(F)(F)F)cc1 (stereo not drawn) [Compound 75, 6-chloro-7-fluoro-1-[4-(trifluoromethyl)phenyl]-2-[4-(trifluoromethyl)pyrimidin-2-yl]-2,3,4,9-tetrahydro-1H-pyrido[3,4-b]indole]	12.5
Cc1ccc(C2c3[nH]c4ccc(Cl)c(F)c4c3CCN2c2nccc(C(F)(F)F)n2)cc1 (stereo not drawn) [Compound 76, 6-chloro-5-fluoro-1-(4-methylphenyl)-2-[4-(trifluoromethyl)pyrimidin-2-yl]-2,3,4,9-tetrahydro-1H-pyrido[3,4-b]indole]	2.5
Fc1cc2[nH]c3c(c2cc1Cl)CCN(c1nccc(Cl)n1)C3c1cccc(F)c1F (stereo not drawn) [Compound 77, 6-chloro-2-(4-chloropyrimidin-2-yl)-1-(2,3-difluorophenyl)-7-fluoro-2,3,4,9-tetrahydro-1H-pyrido[3,4-b]indole]	7.4
OCc1ccc(C2c3[nH]c4cc(F)c(Cl)cc4c3CCN2c2ncc(F)cn2)cc1 (stereo not drawn) [Compound 78, {4-[6-chloro-7-fluoro-2-(5-fluoropyrimidin-2-yl)-2,3,4,9-tetrahydro-1H-pyrido[3,4-b]indol-1-yl]phenyl}methanol]	46.9
C=Cc1ccc(C2c3[nH]c4cc(F)c(Cl)cc4c3CCN2c2ncc(F)cn2)cc1 (stereo not drawn) [Compound 79, 6-chloro-1-(4-ethenylphenyl)-7-fluoro-2-(5-fluoropyrimidin-2-yl)-2,3,4,9-tetrahydro-1H-pyrido[3,4-b]indole]	20.7
Fc1cc2[nH]c3c(c2cc1Cl)CCN(c1ncc(Cl)cn1)C3c1ccc(C(F)(F)F)cc1 (stereo not drawn) [Compound 80, 6-chloro-2-(5-chloropyrimidin-2-yl)-7-fluoro-1-[4-(trifluoromethyl)phenyl]-2,3,4,9-tetrahydro-1H-pyrido[3,4-b]indole]	31
Cc1ccnc(N2CCc3c([nH]c4cc(F)c(Cl)cc34)C2c2ccc(C(F)(F)F)cc2)n1 (stereo not drawn) [Compound 81, 6-chloro-7-fluoro-2-(4-methylpyrimidin-2-yl)-1-[4-(trifluoromethyl)phenyl]-2,3,4,9-tetrahydro-1H-pyrido[3,4-b]indole]	40.1
Cc1ccc(C2c3[nH]c4ccc(F)c(F)c4c3CCN2c2ncc(F)cn2)cc1 (stereo not drawn) [Compound 82, 5,6-difluoro-2-(5-fluoropyrimidin-2-yl)-1-(4-methylphenyl)-2,3,4,9-tetrahydro-1H-pyrido[3,4-b]indole]	86.5
Fc1ccc(C2c3[nH]c4ccc(F)c(F)c4c3CCN2c2ncc(F)cn2)cc1 (stereo not drawn) [Compound 83, 5,6-difluoro-1-(4-fluorophenyl)-2-(5-fluoropyrimidin-2-yl)-2,3,4,9-tetrahydro-1H-pyrido[3,4-b]indole]	259
Cc1ccc(C2c3[nH]c4ccc(F)c(F)c4c3CCN2c2ncc(Cl)cn2)cc1 (stereo not drawn) [Compound 84, 2-(5-chloropyrimidin-2-yl)-5,6-difluoro-1-(4-methylphenyl)-2,3,4,9-tetrahydro-1H-pyrido[3,4-b]indole]	65.6
Fc1ccc(C2c3[nH]c4ccc(F)c(F)c4c3CCN2c2ncc(Cl)cn2)cc1 (stereo not drawn) [Compound 85, 2-(5-chloropyrimidin-2-yl)-5,6-difluoro-1-(4-fluorophenyl)-2,3,4,9-tetrahydro-1H-pyrido[3,4-b]indole]	162
COC(=O)c1ccnc(N2CCc3c([nH]c4ccc(Cl)c(F)c34)C2c2ccc(Cl)cc2)n1 (stereo not drawn) [Compound 87, methyl 2-[6-chloro-1-(4-chlorophenyl)-5-fluoro-1,3,4,9-tetrahydro-2H-pyrido[3,4-b]indol-2-yl]pyrimidine-4-carboxylate]	7.9
Cc1cc(C(F)(F)F)nc(N2CCc3c([nH]c4cc(F)c(Cl)cc34)C2c2ccc(C#N)cc2)n1 (stereo not drawn) [Compound 88, 4-{6-chloro-7-fluoro-2-[4-methyl-6-(trifluoromethyl)pyrimidin-2-yl]-2,3,4,9-tetrahydro-1H-pyrido[3,4-b]indol-1-yl}benzonitrile]	2.3
N#Cc1ccc(C2c3[nH]c4ccc(Cl)c(F)c4c3CCN2c2nccc(C(F)(F)F)n2)cc1 (stereo not drawn) [Compound 89, 4-{6-chloro-5-fluoro-2-[4-(trifluoromethyl)pyrimidin-2-yl]-2,3,4,9-tetrahydro-1H-pyrido[3,4-b]indol-1-yl}benzonitrile]	5.7
Cc1ccnc(N2CCc3c([nH]c4ccc(Cl)c(F)c34)C2c2ccc(F)cc2)n1 (stereo not drawn) [Compound 90, 6-chloro-5-fluoro-1-(4-fluorophenyl)-2-(4-methylpyrimidin-2-yl)-2,3,4,9-tetrahydro-1H-pyrido[3,4-b]indole]	29.1
Cc1ncc(C2c3[nH]c4cc(F)c(Cl)cc4c3CCN2c2ncc(F)cn2)cn1 (stereo not drawn) [Compound 91, 6-chloro-7-fluoro-2-(5-fluoropyrimidin-2-yl)-1-(2-methylpyrimidin-5-yl)-2,3,4,9-tetrahydro-1H-pyrido[3,4-b]indole]	89.9
Cc1ncc(C2c3[nH]c4cc(F)c(Cl)cc4c3CCN2c2nccc(C(F)(F)F)n2)cn1 (stereo not drawn) [Compound 92, 6-chloro-7-fluoro-1-(2-methylpyrimidin-5-yl)-2-[4-(trifluoromethyl)pyrimidin-2-yl]-2,3,4,9-tetrahydro-1H-pyrido[3,4-b]indole]	34.6
Cc1cc(C)nc(N2CCc3c([nH]c4cc(F)c(Cl)cc34)C2c2ccc(C#N)cc2)n1 (stereo not drawn) [Compound 93, 4-[6-chloro-2-(4,6-dimethylpyrimidin-2-yl)-7-fluoro-2,3,4,9-tetrahydro-1H-pyrido[3,4-b]indol-1-yl]benzonitrile]	9.7
Cc1ccnc(N2CCc3c([nH]c4cc(F)c(Cl)cc34)C2c2cnc(N(C)C)nc2)n1 (stereo not drawn) [Compound 94, 5-[6-chloro-7-fluoro-2-(4-methylpyrimidin-2-yl)-2,3,4,9-tetrahydro-1H-pyrido[3,4-b]indol-1-yl]-N,N-dimethylpyrimidin-2-amine]	22.2
CN(C)c1ncc(C2c3[nH]c4cc(F)c(Cl)cc4c3CCN2c2nccc(C(F)(F)F)n2)cn1 (stereo not drawn) [Compound 95, 5-{6-chloro-7-fluoro-2-[4-(trifluoromethyl)pyrimidin-2-yl]-2,3,4,9-tetrahydro-1H-pyrido[3,4-b]indol-1-yl}-N,N-dimethylpyrimidin-2-amine]	4.6
Cc1ccc(C2c3[nH]c4cc(F)c(Cl)cc4c3CCN2c2nc(C)cc(C(F)(F)F)n2)cc1 (stereo not drawn) [Compound 96, 6-chloro-7-fluoro-1-(4-methylphenyl)-2-[4-methyl-6-(trifluoromethyl)pyrimidin-2-yl]-2,3,4,9-tetrahydro-1H-pyrido[3,4-b]indole]	1.9
Cc1ccc(C2c3[nH]c4cc(F)c(Cl)cc4c3CCN2c2ncc(C(F)(F)F)cn2)cc1 (stereo not drawn) [Compound 97, 6-chloro-7-fluoro-1-(4-methylphenyl)-2-[5-(trifluoromethyl)pyrimidin-2-yl]-2,3,4,9-tetrahydro-1H-pyrido[3,4-b]indole]	15.3
Fc1ccc(C2c3[nH]c4cc(F)c(Cl)cc4c3CCN2c2ncc(C(F)(F)F)cn2)cc1 (stereo not drawn) [Compound 98, 6-chloro-7-fluoro-1-(4-fluorophenyl)-2-[5-(trifluoromethyl)pyrimidin-2-yl]-2,3,4,9-tetrahydro-1H-pyrido[3,4-b]indole]	41.6
CC(C)c1ccc(C2c3[nH]c4cc(F)c(Cl)cc4c3CCN2c2ncc(C(F)(F)F)cn2)cc1 (stereo not drawn) [Compound 99, 6-chloro-7-fluoro-1-[4-(propan-2-yl)phenyl]-2-[5-(trifluoromethyl)pyrimidin-2-yl]-2,3,4,9-tetrahydro-1H-pyrido[3,4-b]indole]	14
N#Cc1ccc(C2c3[nH]c4cc(F)c(Cl)cc4c3CCN2c2nccc(C(F)(F)F)n2)cc1 (stereo not drawn) [Compound 100, 4-{6-chloro-7-fluoro-2-[4-(trifluoromethyl)pyrimidin-2-yl]-2,3,4,9-tetrahydro-1H-pyrido[3,4-b]indol-1-yl}benzonitrile]	6.4

From patent publication US20250186437A1, “CARBOLINE COMPOUNDS AND USE THEREOF” (PTC Therapeutics, Inc., priority 2021, published 2025)
